{"source": "patent US10376520B2", "about": "“Methods for the treatment of cardiovascular disorders” (Galapagos NV, priority 2015, dated 2019)", "test_system": "Subjects With Active Crohn's Disease", "assay": "Total cholesterol determination, Study 5 (Crohn's disease, monotherapy of Compound 1)", "type": "in vivo, human", "conditions": "for [Total cholesterol] Mean CFB - 10 weeks results / [Total cholesterol] Median CFB - 10 weeks results / [Total cholesterol] Median CFB / [total cholesterol] Mean CFB: 200 mg q.d.; for [Total cholesterol] Median CFB / [total cholesterol] Mean CFB: Study 5 10 weeks results", "from_the_text": "Double-Blind, Randomized, Placebo-Controlled, Multi-Centre Study to Investigate the Efficacy and Safety of Compound 1 in Subjects With Active Crohn's Disease With Evidence of Mucosal Ulceration.\nThis is a double-blind, randomized, placebo-controlled, multi-centre Phase 2 study to investigate the efficacy and safety of Compound 1 administered once daily for the treatment of active CD with evidence of mucosal ulceration. The pharmacokinetics (including a PK substudy) and pharmacodynamics of Compound 1 and metabolite in CD will also be characterised.\nA total of 180 eligible subjects will be randomized to receive Compound 1 or placebo in addition to their stable background treatment (eg, corticosteroids, aminosalicylates, or CD-related antibiotics). The study will consist of 2 parts, with total treatment duration of 20 weeks. Randomization in Part 1 will be stratified according the subject's previous anti-TNF exposure/response, CRP level at Screening, and oral corticosteroid use at visit Day −1.\nAfter the first 10 weeks of treatment in Part 1, patients will be re-randomized for Part 2 as shown in the diagram below and will be stratified according to the subject's clinical response, previous anti-TNF exposure/response, and oral corticosteroid use at visit Day −1.\nThe following assays were conducted at Eurofins Global Central Laboratory, Bergschot 71, 4817 PA Breda, The Netherlands, and at Quest Diagnostics, Clinical Trials, Quest House, 125-135 Staines Road, Hounslow, Middlesex, TW3 3JB, United Kingdom. The assays for Study 5 were performed at BARC Europe, 3B, Industrie Park, Zwijnaarde, B-9052 Ghent, Belgium.\nThis method is based on the determination of Δ^4 cholestenone after enzymatic cleavage of the cholesterol ester by cholesterol esterase, conversion of cholesterol by cholesterol oxidase, and subsequent measurement by the Trinder reaction of the hydrogen peroxide formed (Allain et al., 1974).\nCholesterol esters are cleaved by the action of cholesterol esterase to yield free cholesterol and fatty acids. Cholesterol oxidase then catalyzes the oxidation of cholesterol to cholest-4-en-3-one and hydrogen peroxide. In the presence of peroxidase, the hydrogen peroxide formed effects the oxidative coupling of phenol and 4-aminophenazone to form a red quinone-imine dye. The color intensity of the dye formed is directly proportional to the cholesterol concentration. It is determined by measuring the increase in absorbance.\nHuman serum and plasma samples cholesterol determination was done on a Roche/Hitachi Cobas c 701/702 system which automatically calculate the analyte concentration of each sample.", "key": {"[1]": {"conditions": "200 mg q.d. continued to week 20, week 2"}, "[2]": {"conditions": "200 mg q.d. continued to week 20, week 4"}, "[3]": {"conditions": "200 mg q.d. continued to week 20, week 6"}, "[4]": {"conditions": "200 mg q.d. continued to week 20, week 10"}, "[5]": {"conditions": "200 mg q.d. continued to week 20, week 12"}, "[6]": {"conditions": "200 mg q.d. continued to week 20, week 16"}, "[7]": {"conditions": "200 mg q.d. continued to week 20, week 20"}, "[8]": {"conditions": "200 mg q.d. week 0 to 10, to 100 mg q.d. week 10 to 20, week 2"}, "[9]": {"conditions": "200 mg q.d. week 0 to 10, to 100 mg q.d. week 10 to 20, week 4"}, "[10]": {"conditions": "200 mg q.d. week 0 to 10, to 100 mg q.d. week 10 to 20, week 6"}, "[11]": {"conditions": "200 mg q.d. week 0 to 10, to 100 mg q.d. week 10 to 20, week 10"}, "[12]": {"conditions": "200 mg q.d. week 0 to 10, to 100 mg q.d. week 10 to 20, week 12"}, "[13]": {"conditions": "200 mg q.d. week 0 to 10, to 100 mg q.d. week 10 to 20, week 16"}, "[14]": {"conditions": "200 mg q.d. week 0 to 10, to 100 mg q.d. week 10 to 20, week 20"}, "[15]": {"conditions": "200 mg q.d. week 0 to 10, to placebo week 10 to 20, week 2"}, "[16]": {"conditions": "200 mg q.d. week 0 to 10, to placebo week 10 to 20, week 4"}, "[17]": {"conditions": "200 mg q.d. week 0 to 10, to placebo week 10 to 20, week 6"}, "[18]": {"conditions": "200 mg q.d. week 0 to 10, to placebo week 10 to 20, week 10"}, "[19]": {"conditions": "200 mg q.d. week 0 to 10, to placebo week 10 to 20, week 12"}, "[20]": {"conditions": "200 mg q.d. week 0 to 10, to placebo week 10 to 20, week 16"}, "[21]": {"conditions": "200 mg q.d. week 0 to 10, to placebo week 10 to 20, week 20"}}}
{"smiles": "O=C(Nc1nc2cccc(-c3ccc(CN4CCS(=O)(=O)CC4)cc3)n2n1)C1CC1", "note": "[Compound 1, cyclopropanecarboxylic acid {5-[4-(1,1-dioxo-thiomorpholin-4-ylmethyl)-phenyl]-[1,2,4]triazolo[1,5-a]pyridin-2yl}-amide]", "values": [{"measurement": "[Total cholesterol] Mean CFB - 20 weeks results", "setting": "[1]", "result": 7.30, "unit": "%"}, {"measurement": "[Total cholesterol] Median CFB - 20 weeks results", "setting": "[1]", "result": 5.15, "unit": "%"}, {"measurement": "[Total cholesterol] Mean CFB - 20 weeks results", "setting": "[2]", "result": 5.06, "unit": "%"}, {"measurement": "[Total cholesterol] Median CFB - 20 weeks results", "setting": "[2]", "result": 2.70, "unit": "%"}, {"measurement": "[Total cholesterol] Mean CFB - 20 weeks results", "setting": "[3]", "result": 6.70, "unit": "%"}, {"measurement": "[Total cholesterol] Median CFB - 20 weeks results", "setting": "[3]", "result": 7.88, "unit": "%"}, {"measurement": "[Total cholesterol] Mean CFB - 20 weeks results", "setting": "[4]", "result": 11.58, "unit": "%"}, {"measurement": "[Total cholesterol] Median CFB - 20 weeks results", "setting": "[4]", "result": 9.98, "unit": "%"}, {"measurement": "[Total cholesterol] Mean CFB - 20 weeks results", "setting": "[5]", "result": 11.06, "unit": "%"}, {"measurement": "[Total cholesterol] Median CFB - 20 weeks results", "setting": "[5]", "result": 6.99, "unit": "%"}, {"measurement": "[Total cholesterol] Mean CFB - 20 weeks results", "setting": "[6]", "result": 11.13, "unit": "%"}, {"measurement": "[Total cholesterol] Median CFB - 20 weeks results", "setting": "[6]", "result": 6.91, "unit": "%"}, {"measurement": "[Total cholesterol] Mean CFB - 20 weeks results", "setting": "[7]", "result": 11.03, "unit": "%"}, {"measurement": "[Total cholesterol] Median CFB - 20 weeks results", "setting": "[7]", "result": 5.31, "unit": "%"}, {"measurement": "[Total cholesterol] Mean CFB - 20 weeks results", "setting": "[8]", "result": 4.54, "unit": "%"}, {"measurement": "[Total cholesterol] Median CFB - 20 weeks results", "setting": "[8]", "result": 4.08, "unit": "%"}, {"measurement": "[Total cholesterol] Mean CFB - 20 weeks results", "setting": "[9]", "result": 6.72, "unit": "%"}, {"measurement": "[Total cholesterol] Median CFB - 20 weeks results", "setting": "[9]", "result": 1.92, "unit": "%"}, {"measurement": "[Total cholesterol] Mean CFB - 20 weeks results", "setting": "[10]", "result": 6.47, "unit": "%"}, {"measurement": "[Total cholesterol] Median CFB - 20 weeks results", "setting": "[10]", "result": 5.89, "unit": "%"}, {"measurement": "[Total cholesterol] Mean CFB - 20 weeks results", "setting": "[11]", "result": 9.72, "unit": "%"}, {"measurement": "[Total cholesterol] Median CFB - 20 weeks results", "setting": "[11]", "result": 7.10, "unit": "%"}, {"measurement": "[Total cholesterol] Mean CFB - 20 weeks results", "setting": "[12]", "result": 5.38, "unit": "%"}, {"measurement": "[Total cholesterol] Median CFB - 20 weeks results", "setting": "[12]", "result": 7.04, "unit": "%"}, {"measurement": "[Total cholesterol] Mean CFB - 20 weeks results", "setting": "[13]", "result": 2.89, "unit": "%"}, {"measurement": "[Total cholesterol] Median CFB - 20 weeks results", "setting": "[13]", "result": 2.83, "unit": "%"}, {"measurement": "[Total cholesterol] Mean CFB - 20 weeks results", "setting": "[14]", "result": 3.80, "unit": "%"}, {"measurement": "[Total cholesterol] Median CFB - 20 weeks results", "setting": "[14]", "result": 2.28, "unit": "%"}, {"measurement": "[Total cholesterol] Mean CFB - 20 weeks results", "setting": "[15]", "result": 3.98, "unit": "%"}, {"measurement": "[Total cholesterol] Median CFB - 20 weeks results", "setting": "[15]", "result": 3.93, "unit": "%"}, {"measurement": "[Total cholesterol] Mean CFB - 20 weeks results", "setting": "[16]", "result": 6.98, "unit": "%"}, {"measurement": "[Total cholesterol] Median CFB - 20 weeks results", "setting": "[16]", "result": 6.38, "unit": "%"}, {"measurement": "[Total cholesterol] Mean CFB - 20 weeks results", "setting": "[17]", "result": 5.72, "unit": "%"}, {"measurement": "[Total cholesterol] Median CFB - 20 weeks results", "setting": "[17]", "result": 7.32, "unit": "%"}, {"measurement": "[Total cholesterol] Mean CFB - 20 weeks results", "setting": "[18]", "result": 5.28, "unit": "%"}, {"measurement": "[Total cholesterol] Median CFB - 20 weeks results", "setting": "[18]", "result": 3.89, "unit": "%"}, {"measurement": "[Total cholesterol] Mean CFB - 20 weeks results", "setting": "[19]", "result": 1.82, "unit": "%"}, {"measurement": "[Total cholesterol] Median CFB - 20 weeks results", "setting": "[19]", "result": 3.93, "unit": "%"}, {"measurement": "[Total cholesterol] Mean CFB - 20 weeks results", "setting": "[20]", "result": 5.24, "unit": "%"}, {"measurement": "[Total cholesterol] Median CFB - 20 weeks results", "setting": "[20]", "result": 1.36, "unit": "%"}, {"measurement": "[Total cholesterol] Mean CFB - 20 weeks results", "setting": "[21]", "result": 3.92, "unit": "%"}, {"measurement": "[Total cholesterol] Median CFB - 20 weeks results", "setting": "[21]", "result": 2.50, "unit": "%"}, {"measurement": "[Total cholesterol] Mean CFB - 10 weeks results", "setting": "week 2", "result": 6.066, "unit": "%"}, {"measurement": "[Total cholesterol] Median CFB - 10 weeks results", "setting": "week 2", "result": 4.148, "unit": "%"}, {"measurement": "[Total cholesterol] Mean CFB - 10 weeks results", "setting": "week 4", "result": 5.803, "unit": "%"}, {"measurement": "[Total cholesterol] Median CFB - 10 weeks results", "setting": "week 4", "result": 3.803, "unit": "%"}, {"measurement": "[Total cholesterol] Mean CFB - 10 weeks results", "setting": "week 6", "result": 6.458, "unit": "%"}, {"measurement": "[Total cholesterol] Median CFB - 10 weeks results", "setting": "week 6", "result": 7.187, "unit": "%"}, {"measurement": "[Total cholesterol] Mean CFB - 10 weeks results", "setting": "week 10", "result": 9.976, "unit": "%"}, {"measurement": "[Total cholesterol] Median CFB - 10 weeks results", "setting": "week 10", "result": 7.456, "unit": "%"}, {"measurement": "[Total cholesterol] Median CFB", "setting": "week 2", "result": 0.200, "unit": "mmol/L"}, {"measurement": "[total cholesterol] Mean CFB", "setting": "week 2", "result": 0.231, "unit": "mmol/L"}, {"measurement": "[Total cholesterol] Median CFB", "setting": "week 4", "result": 0.180, "unit": "mmol/L"}, {"measurement": "[total cholesterol] Mean CFB", "setting": "week 4", "result": 0.194, "unit": "mmol/L"}, {"measurement": "[Total cholesterol] Median CFB", "setting": "week 6", "result": 0.300, "unit": "mmol/L"}, {"measurement": "[total cholesterol] Mean CFB", "setting": "week 6", "result": 0.215, "unit": "mmol/L"}]}
